Among the data in patent publication US7745428B2, “Imidazo[1,2-A]pyridine having anti-cell-proliferation activity” (AstraZeneca AB, priority 2005, dated 2010) are IC50 values, retold here.

The target of the assay is T1, CDK2/Cyclin E (Homo sapiens, UniProt P24941).
T1 construct: The open reading frames of CDK2 and Cyclin E were isolated; made in house; host or cells: Sf21 (Spodoptera frugiperda) insect cells, baculovirus co-infection; substrate in E. coli BL21 (DE3) pLysS
The experiment in a line: in vitro kinase assay (Scintillation Proximity Assay), CDK2/Cyclin E, GST-Rb substrate. The settings on record: in-vitro SPA kinase assay, 0.2 μM ATP, room temperature, 60 minutes; read-out: CDK2 inhibitory activity (CDK2 enzyme). It is filed as biochemical. As to the method: The compounds were tested in an in vitro kinase assay in 96 well format using Scintillation Proximity Assay (SPA—obtained from Amersham) for measuring incorporation of [γ-33-P]-Adenosine Triphosphate into a test substrate (GST-Retinoblastoma protein; GST-Rb). In each well was placed the compound to be tested (diluted in DMSO and water to correct concentrations) and in control wells either roscovitine as an inhibitor control or DMSO as a […] control.
Approximately 0.2 μl of CDK2/Cyclin E partially-purified enzyme (amount dependent on enzyme activity) diluted in 25 μl incubation buffer was added to each well then 20 μl of GST-Rb/ATP/ATP33 mixture (containing 0.5 μg GST-Rb and 0.2 μM ATP and 0.14 μCi[γ-33-P]-Adenosine Triphosphate in incubation buffer), and the resulting mixture shaken gently, then incubated at room temperature for 60 minutes. […]
The plates were sealed with Topseal-S plate sealers, left for two hours then spun at 2500 rpm, 1124×g., for 5 minutes. The plates were read on a Topcount for 30 seconds per well. […]
The open reading frames of CDK2 and Cyclin E were isolated by reverse transcriptase-PCR using HeLa cell and activated T cell mRNA as a template and cloned into the insect expression vector pVL1393 (obtained from Invitrogen 1995 catalogue number: V1392-20). […]
(Scintillation proximity formats need no separation of bound from free tracer.)

On to `CN1CCN(C(=O)c2ccc(Nc3nccc(-c4cnc5ccccn45)n3)cc2)CC1` [Example 2, [4-(4-Imidazo[1,2-a]pyridin-3-yl-pyrimidin-2-ylamino)-phenyl]-(4-methyl-piperazin-1-yl)-methanone], for which the IC50 amounted to 90 nM.
